Results on 34 compounds are retold here after patent publication US12497405B2, “Bicyclic heterocycle compounds methods of use thereof for the treatment of herpes viruses” (Merck Sharp & Dohme LLC, priority 2019, dated 2025).

Molecules are shown by their SMILES.

Broadly, the EC50 is the concentration at which the effect is half-maximal.

Holding throughout (type): cell-based
One assay concerns CMV. The assay is described as follows: Viral qPCR assay, CMV. The settings on record: Human betaherpesvirus 5, 72 h, infected cells, viral genome copies by qPCR normalized to PPIA, read-out: CMV Cell EC50. The procedure:
(§1) MRC5 cells, Vero cells, and MeWo cells were obtained from ATCC, and were maintained at 37° C./5% CO2/90% relative humidity in Minimal Essential Medium with 10% fetal bovine serum, […] L-glutamine, 100 units/ml penicillin and 100 ug/ml streptomycin. Assay plates were prepared by dispensing compounds dissolved in DMSO into wells of 384 well collagen-coated plates using an ECHO acoustic dispenser. Each test compound was tested in a 10-point, serial 3-fold dilution. Controls included uninfected cells and infected cells treated only with DMSO. Assays were initiated by mixing selected cells, in suspension, with virus, and dispensing 50 μl/well infected cells to pre-plated compounds. Plates were incubated at 37° C./5% CO2/90% relative humidity for ˜72 hrs to permit genomic replication, and infected cells were lysed by the addition of an equal volume of lysis buffer (10 mM Tris-HCl, pH8, 50 mM KCl, 2 mM MgCl2, 0.45% NP-40, 0.45% Tween-20, and 100 µg/ml proteinase K). An aliquot of the lysate was then transferred to a 384-well PCR plate and incubated at 56° C. for 1 hour, and then at 95° C. for 10 minutes. Levels of the selected viral gene and of the cellular control, PPIA, were measured in separate 10 μl qPCR assays using TaqMan® Gene Expression Master Mix (Applied Biosystems), and an 7900HT Fast Real-Time PCR System with 384-Well Block Module. 7-point, serial 10-fold dilutions of a plasmid standard were run on each plate to generate a standard curve, and genome copies numbers were calculated by plotting experimental Ct onto linear regression of the standard curve. Viral genome copy numbers were normalized by cellular control copy number, and compound effects were normalized to the window defined by the controls. Calculated % effects were fit using a 4-parameter algorithm, and EC50 was reported.
In general terms: Real-time PCR tracks product formation cycle by cycle.

For the next assay, the system named is HSV1. The assay can be described thus: Viral qPCR assay, HSV1. Conditions: Human alphaherpesvirus 1, 72 h, infected cells, viral genome copies by qPCR normalized to PPIA, read-out: HSV1 Cell EC50. As for the experimental part:
as §1

The subject of another assay is HSV2. The assay is described as follows: Viral qPCR assay, HSV2. The settings on record: Human alphaherpesvirus 2, 72 h, infected cells, viral genome copies by qPCR normalized to PPIA, read-out: HSV2 Cell EC50. As for the experimental part: as §1

As for `COc1cnc(-c2cc3nc(C)n(Cc4ccc(Cl)cc4)c(=O)c3cc2O[C@H]2CCN3C(=O)OC[C@@H]3C2)cn1` [Example 113], the EC50 amounted to 2970 nM in the assay on CMV, 2680 nM in the assay on HSV1 and 1690 nM in the assay on HSV2.

For the compound `Cc1nc2cc(-c3cnc(OC4CC4)nc3)c(O[C@H]3CCN4C(=O)OC[C@@H]4C3)cc2c(=O)n1Cc1ccc(Cl)cc1` [Example 114], the values for the half-maximal effective concentration (EC50) in the assay on CMV, in the assay with HSV1 and in the assay on HSV2 were 348 nM, 323 nM and 124 nM, respectively.

`Cc1nc2cc(-c3cnc(C4CCOCC4)nc3)c(O[C@H]3CCN4C(=O)OC[C@@H]4C3)cc2c(=O)n1Cc1ccc(Cl)cc1` [Example 115]: the values for the EC50 with CMV, in the assay with HSV1 and in the assay on HSV2 were 258 nM, 313 nM and 111 nM, respectively.

As for `Cc1nc2cc(-c3cn4cccnc4n3)c(O[C@H]3CCN4C(=O)OC[C@@H]4C3)cc2c(=O)n1Cc1ccc(Cl)cc1` [Example 116], the EC50 in the assay with CMV turned out to be 127 nM; with HSV1, 106 nM; in the assay with HSV2 it was 62 nM.

Consider `Cc1cnc(-c2cc3nc(C)n(Cc4ccc(Cl)cc4)c(=O)c3cc2O[C@H]2CCN3C(=O)OC[C@@H]3C2)nc1` [Example 117], for which the EC50 with CMV was found to be 304 nM; in the assay on HSV1, 652 nM; in the assay on HSV2, 455 nM.

For the compound `Cc1nc2cc(-c3cncnc3)c(O[C@H]3CCN4C(=O)OC[C@@H]4C3)cc2c(=O)n1Cc1ccc(Cl)cc1` [Example 118], the half-maximal effective concentration (EC50) was determined as 135 nM in the assay with CMV, 244 nM in the assay with HSV1 and 180 nM in the assay with HSV2.

Turning to `Cc1nc2cc(-c3ncccn3)c(O[C@H]3CCN4C(=O)OC[C@@H]4C3)cc2c(=O)n1Cc1ccc(Cl)cc1` [Example 119], the EC50 with CMV amounted to 397 nM; in the assay on HSV1, 933 nM; in the assay on HSV2, 921 nM.

For `O=C1OC[C@@H]2C[C@@H](Oc3cc4c(=O)n(Cc5ccc(Cl)cc5)c(CCN5CCOCC5)nc4cc3-c3cnn(C(F)F)c3)CCN12` [Example 120], the EC50 with CMV is 957 nM; in the assay on HSV1 it was 2410 nM; in the assay on HSV2, 1020 nM.

Regarding `O=C1OC[C@@H]2C[C@@H](Oc3cc4c(=O)n(Cc5ccc(Cl)cc5)c(CC5CCOCC5)nc4cc3-c3cnn(C(F)F)c3)CCN12` [Example 121], the figures for the EC50 with CMV, with HSV1 and in the assay on HSV2 were 299 nM, 188 nM and 128 nM, respectively.

Turning to `Cc1nc2cc(-c3cnccn3)c(O[C@H]3CCN4C(=O)OC[C@@H]4C3)cc2c(=O)n1Cc1ccc(Cl)cc1` [Example 122], the half-maximal effective concentration (EC50) in the assay with CMV is 382 nM; in the assay on HSV1, 844 nM; in the assay on HSV2, 543 nM.

Regarding `Cc1nc2cc(-c3cnc(C(F)F)nc3)c(O[C@H]3CCN4C(=O)OC[C@@H]4C3)cc2c(=O)n1Cc1ccc(Cl)cc1` [Example 124], the values for the concentration giving a half-maximal response (EC50) with CMV, in the assay with HSV1 and in the assay on HSV2 were 163 nM, 198 nM and 120 nM, respectively.

In the case of `O=C1OC[C@@H]2C[C@@H](Oc3cc4c(=O)n(Cc5ccc(Cl)cc5)c(CN5CCOCC5)nc4cc3-c3cnn(C(F)F)c3)CCN12` [Example 125], the results for the concentration for a half-maximal effect (EC50) in the assay with CMV, with HSV1 and in the assay with HSV2 were 4240 nM, 3830 nM and 1280 nM, respectively.

For the compound `O=C1OC[C@@H]2C[C@@H](Oc3cc4c(=O)n(Cc5ccc(Cl)cc5)c(OC5CCOCC5)nc4cc3-c3cnn(C(F)F)c3)CCN12` [Example 126], the EC50 in the assay on CMV is 205 nM; in the assay with HSV1 it was 372 nM; in the assay on HSV2, 140 nM.

Consider `Cc1nc2cc(-c3cccnn3)c(O[C@H]3CCN4C(=O)OC[C@@H]4C3)cc2c(=O)n1Cc1ccc(Cl)cc1` [Example 127], for which the EC50 in the assay with CMV was found to be 280 nM; in the assay with HSV1, 484 nM; in the assay on HSV2, 793 nM.

`Cc1cnc(-c2cc3nc(C)n(Cc4ccc(Cl)cc4)c(=O)c3cc2O[C@H]2CCN3C(=O)OC[C@@H]3C2)cn1` [Example 128]: the half-maximal effective concentration (EC50) in the assay with CMV worked out at 114 nM; with HSV1, 217 nM; with HSV2, 131 nM.

On to `O=C1OC[C@@H]2C[C@@H](Oc3cc4c(=O)n(Cc5ccc(Cl)cc5)c(CN5CCC5)nc4cc3-c3cnn(C(F)F)c3)CCN12` [Example 129], for which the half-maximal effective concentration (EC50) in the assay on CMV came out at 115 nM; with HSV1, 178 nM; with HSV2 it was 135 nM.

With `Cc1nc2cc(-c3ccncn3)c(O[C@H]3CCN4C(=O)OC[C@@H]4C3)cc2c(=O)n1Cc1ccc(Cl)cc1` [Example 130], the EC50 with CMV turned out to be 190 nM; in the assay on HSV1 it was 167 nM; in the assay on HSV2 it was 287 nM.

Take `Cc1nccc(-c2cc3nc(C)n(Cc4ccc(Cl)cc4)c(=O)c3cc2O[C@H]2CCN3C(=O)OC[C@@H]3C2)n1` [Example 131]: the EC50 in the assay on CMV was 102 nM; with HSV1, 223 nM; in the assay with HSV2 it was 157 nM.

Turning to `COc1cnnc(-c2cc3nc(C)n(Cc4ccc(Cl)cc4)c(=O)c3cc2O[C@H]2CCN3C(=O)OC[C@@H]3C2)c1` [Example 132], the figures for the EC50 in the assay on CMV, with HSV1 and in the assay with HSV2 were 1470 nM, 1470 nM and 822 nM, respectively.

In the case of `O=C1OC[C@@H]2C[C@@H](Oc3cc4c(=O)n(Cc5ccc(Cl)cc5)c(CNCC(F)(F)F)nc4cc3-c3cnn(C(F)F)c3)CCN12` [Example 133], the EC50 in the assay on CMV came to 167 nM; in the assay with HSV1, 238 nM; with HSV2 it was 106 nM.

For `O=C1OC[C@@H]2C[C@@H](Oc3cc4c(=O)n(Cc5ccc(Cl)cc5)c(OCCN5CCC5)nc4cc3-c3cnn(C(F)F)c3)CCN12` [Example 134], the concentration giving a half-maximal response (EC50) with CMV came to 119 nM; in the assay with HSV1, 171 nM; with HSV2, 98 nM.

Consider `O=C1OC[C@@H]2C[C@@H](Oc3cc4c(=O)n(Cc5ccc(Cl)cc5)c(OCC5CC5)nc4cc3-c3cnn(C(F)F)c3)CCN12` [Example 135], for which the results for the concentration giving a half-maximal response (EC50) with CMV, with HSV1 and in the assay on HSV2 were 939 nM, 799 nM and 649 nM, respectively.

As to `Cc1cnnc(-c2cc3nc(C)n(Cc4ccc(Cl)cc4)c(=O)c3cc2O[C@H]2CCN3C(=O)OC[C@@H]3C2)c1` [Example 136], the values for the EC50 in the assay with CMV, in the assay on HSV1 and in the assay with HSV2 were 826 nM, 1720 nM and 2150 nM, respectively.

For `CC(C)(O)Cc1nc2cc(-c3cnn(C(F)F)c3)c(O[C@H]3CCN4C(=O)OC[C@@H]4C3)cc2c(=O)n1Cc1ccc(Cl)cc1` [Example 140], the EC50 with CMV was 2660 nM; in the assay with HSV1, 4310 nM; in the assay on HSV2, 3760 nM.

Turning to `O=C1OC[C@@H]2C[C@@H](Oc3cc4c(=O)n(Cc5ccc(Cl)cc5)c(N5CCOCC5)nc4cc3-c3cnn(C(F)F)c3)CCN12` [Example 142], the EC50 in the assay with CMV was determined as 129 nM; with HSV1, 154 nM; with HSV2 it was 38 nM.

For `Cc1nc2cc(-c3cnc(N)nn3)c(O[C@H]3CCN4C(=O)OC[C@@H]4C3)cc2c(=O)n1Cc1ccc(Cl)cc1` [Example 144], the EC50 is 137 nM with CMV, 189 nM in the assay with HSV1 and 319 nM in the assay with HSV2.

Take `O=C1OC[C@@H]2C[C@@H](Oc3cc4c(=O)n(Cc5ccc(Cl)cc5)c(N5CC(O)C5)nc4cc3-c3cnn(C(F)F)c3)CCN12` [Example 145]: the EC50 was found to be 101 nM in the assay on CMV, 108 nM in the assay on HSV1 and 112 nM with HSV2.

On to `Cc1nc2cc(-c3nn4ccnc4s3)c(O[C@H]3CCN4C(=O)OC[C@@H]4C3)cc2c(=O)n1Cc1ccc(C#N)cc1` [Example 146], for which the EC50 was 67 nM in the assay on CMV, 93 nM in the assay with HSV1 and 143 nM with HSV2.

As to `COc1nc2cc(-c3cnn(C(F)F)c3)c(O[C@H]3CCN4C(=O)OC[C@@H]4C3)cc2c(=O)n1Cc1ccc(Cl)cc1` [Example 148], the EC50 turned out to be 275 nM with CMV, 213 nM in the assay on HSV1 and 78 nM in the assay with HSV2.

Consider `O=C1OC[C@@H]2C[C@@H](Oc3cc4c(=O)n(Cc5ccc(Cl)cc5)c(O)nc4cc3-c3cnn(C(F)F)c3)CCN12` [Example 150], for which the EC50 in the assay on CMV amounted to 79 nM; in the assay with HSV1, 53 nM; in the assay on HSV2, 88 nM.

With `Cc1nc2cc(-c3cnc(C(C)(C)O)nc3)c(O[C@H]3CCN4C(=O)OC[C@@H]4C3)cc2c(=O)n1Cc1ccc(Cl)cc1` [Example 154], the EC50 is 180 nM in the assay on CMV, 403 nM with HSV1 and 485 nM in the assay on HSV2.

On to `Cc1nc2cc(-c3cnn(C(F)F)c3)c(O[C@H]3CCN4C(=O)OC[C@@H]4C3)cc2c(=O)n1Cc1ccc(Cl)c(CO)c1` [Example 155], for which the EC50 with CMV turned out to be 1340 nM; with HSV1, 5100 nM; in the assay with HSV2, 5400 nM.

As for `N[C@H](Cc1nc2cc(-c3cnn(C(F)F)c3)c(O[C@H]3CCN4C(=O)OC[C@@H]4C3)cc2c(=O)n1Cc1ccc(Cl)cc1)C(F)(F)F` [Example 156], the EC50 with CMV came to 140 nM; in the assay with HSV1 it was 176 nM; in the assay on HSV2 it was 93 nM.

For the compound `N[C@@H](Cc1nc2cc(-c3cnn(C(F)F)c3)c(O[C@H]3CCN4C(=O)OC[C@@H]4C3)cc2c(=O)n1Cc1ccc(Cl)cc1)C(F)(F)F` [Example 157], the EC50 with CMV came to 170 nM; in the assay on HSV1 it was 176 nM; in the assay on HSV2, 81 nM.
